Measured values published in patent publication US9668995B2, “Treatment of motor fluctuations” (Motac Neuroscience Limited, priority 2000, dated 2017).

System: MPTP-lesioned marmoset model of Parkinson's disease
Assay: L-DOPA-induced fluctuations in locomotion in the MPTP-lesioned marmoset model of Parkinson's disease
Assay type: in vivo, Marmosets (Callithrix jacchus)
Settings: 8-OH PIPAT 10 mg/kg co-administered with L-DOPA 8 mg/kg, locomotion assessed every 5 minutes over six hours
Method: The effect of the 5-HT1a-receptor agonist 8-OH-PIPAT on L-DOPA-induced fluctuations in locomotion was assessed in the MPTP-lesioned marmoset model of Parkinson's disease.
Marmosets (Callithrix jacchus) (bred in a closed colony at the University of Manchester) are rendered parkinsonian by subcutaneous injection of 2 mg kg^−1 MPTP for 5 consecutive days. The marmosets are allowed to recover for a minimum of 10 weeks until their parkinsonism becomes stable.
A quantitative assessment of locomotor activity was assessed every 5 minutes for the duration of the experiment using computer-based activity monitors.
Locomotion was measured over a six hour period using Benwick activity monitors. These locomotion monitors consist of a visually-shielded open-field arena, the perimeter of which is surrounded by a series of infra-red beams arranged at 5 cm intervals. PC-based software (Amlogger) assesses the number of beams broken. The number of beams broken as part of a locomotor movement (mobile counts) was measured.
Marmosets were split into two groups. The first group received L-DOPA (8 mg/kg) and vehicle for 8-OH PIPAT only whereas the second group received L-DOPA (8 mg/kg) and 8-OH PIPAT (10 mg/kg).

Structure (SMILES): CCCN(C/C=C/I)C1CCc2cccc(O)c2C1 (racemic) [8-OH-PIPAT, (RS)-trans-8-hydroxy-2-[N-n-propyl-N-(3′-iodo-2′-propenyl)amino]tetralin]
- L-DOPA-stimulated 'on-time' (locomotor activity, mobile counts): increase in L-DOPA-stimulated ‘on-time’
